molecular target: ROCK2 (human) (UniProt O75116); assay: Inhibition of ROCK2 Kinase Activity
Sequence (O75116 whole entry, looked up): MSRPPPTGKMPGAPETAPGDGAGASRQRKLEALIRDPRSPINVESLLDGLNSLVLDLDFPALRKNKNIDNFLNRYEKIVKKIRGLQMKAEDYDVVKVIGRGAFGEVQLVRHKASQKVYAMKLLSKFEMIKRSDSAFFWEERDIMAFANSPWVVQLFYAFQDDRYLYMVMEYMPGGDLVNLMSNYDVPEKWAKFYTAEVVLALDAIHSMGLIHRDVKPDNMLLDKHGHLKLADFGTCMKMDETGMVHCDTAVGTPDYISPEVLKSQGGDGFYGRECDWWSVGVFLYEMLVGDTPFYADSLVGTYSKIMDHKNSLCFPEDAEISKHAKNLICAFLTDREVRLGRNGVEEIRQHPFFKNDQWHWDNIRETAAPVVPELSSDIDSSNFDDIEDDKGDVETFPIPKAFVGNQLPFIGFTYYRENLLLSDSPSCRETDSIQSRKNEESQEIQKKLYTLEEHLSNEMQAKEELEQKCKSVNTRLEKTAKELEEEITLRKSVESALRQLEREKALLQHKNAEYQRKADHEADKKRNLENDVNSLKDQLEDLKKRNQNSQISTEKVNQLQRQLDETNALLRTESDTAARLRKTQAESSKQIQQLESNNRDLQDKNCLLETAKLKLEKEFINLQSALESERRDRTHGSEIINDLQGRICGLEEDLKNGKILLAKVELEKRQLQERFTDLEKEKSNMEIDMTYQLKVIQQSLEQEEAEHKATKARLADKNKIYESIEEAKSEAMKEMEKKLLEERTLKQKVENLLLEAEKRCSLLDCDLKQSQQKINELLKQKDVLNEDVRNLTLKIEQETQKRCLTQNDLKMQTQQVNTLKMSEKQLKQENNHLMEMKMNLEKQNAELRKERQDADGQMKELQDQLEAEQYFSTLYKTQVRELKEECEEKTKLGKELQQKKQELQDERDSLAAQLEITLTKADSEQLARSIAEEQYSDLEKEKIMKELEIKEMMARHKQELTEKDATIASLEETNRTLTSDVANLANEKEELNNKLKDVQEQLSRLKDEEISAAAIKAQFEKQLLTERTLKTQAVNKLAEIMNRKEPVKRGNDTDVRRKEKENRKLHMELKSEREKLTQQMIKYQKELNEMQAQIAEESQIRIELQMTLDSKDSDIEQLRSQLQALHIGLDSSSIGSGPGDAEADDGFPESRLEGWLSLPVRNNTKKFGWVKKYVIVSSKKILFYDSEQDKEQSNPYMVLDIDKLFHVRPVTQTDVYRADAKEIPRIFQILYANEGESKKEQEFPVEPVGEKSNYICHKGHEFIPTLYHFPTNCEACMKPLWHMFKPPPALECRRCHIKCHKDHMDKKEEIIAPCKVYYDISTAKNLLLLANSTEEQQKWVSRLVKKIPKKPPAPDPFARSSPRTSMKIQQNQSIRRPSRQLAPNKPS

Compound	IC50 [nM]
NC(CC(=O)NCc1ccccc1)c1ccc(C(=O)Nc2ccncc2)cc1 (stereo unspecified)	50 to 500
NC(CNC(=O)C1CCCO1)c1ccc(C(=O)Nc2ccncc2)cc1 (stereo unspecified)	500 to 5000
Cc1ccccc1CC(=O)NCC(N)c1ccc(C(=O)Nc2ccncc2)cc1 (stereo unspecified)	50 to 500
COc1ccc(OC)c(CCNC(=O)CC(N)c2ccc(C(=O)Nc3ccncc3)cc2)c1 (stereo unspecified)	50 to 500
NC(CNC(=O)c1c[nH]cn1)c1ccc(C(=O)Nc2ccncc2)cc1 (stereo unspecified)	500 to 5000
NC(CNC(=O)C1(c2ccc(Cl)cc2F)CC1)c1ccc(C(=O)Nc2ccncc2)cc1 (stereo unspecified)	50 to 500
COc1ccc(CNC(=O)CC(N)c2ccc(C(=O)Nc3ccncc3)cc2)c(OC)c1 (stereo unspecified)	50 to 500
CC(C)(C(=O)NCC(N)c1ccc(C(=O)Nc2ccncc2)cc1)c1ccc(Cl)c(Cl)c1 (stereo unspecified)	50 to 500
CS(=O)(=O)c1ccc(CNC(=O)CC(N)c2ccc(C(=O)Nc3ccncc3)cc2)cc1 (stereo unspecified)	50 to 500
CN(C)CCCC(=O)NCC(N)c1ccc(C(=O)Nc2ccncc2)cc1 (stereo unspecified)	500 to 5000
NC(c1ccc(C(=O)Nc2ccncc2)cc1)C1CCCN1C(=O)Cc1ccccc1F (stereo unspecified)	50 to 500
CC(=O)NCC(N)c1ccc(C(=O)Nc2ccncc2)cc1 (stereo unspecified)	500 to 5000
COc1ccccc1CC(=O)NCC(N)c1ccc(C(=O)Nc2ccncc2)cc1 (stereo unspecified)	500 to 5000
NC(c1ccc(C(=O)Nc2ccncc2)cc1)C1CCCN1C(=O)Cc1ccc(Cl)c(Cl)c1 (stereo unspecified)	500 to 5000
CN(CC(N)c1ccc(C(=O)Nc2ccncc2)cc1)C(=O)Cc1cccc2ccccc12 (stereo unspecified)	500 to 5000
NC(CC(=O)NCc1cc(Cl)cc(Cl)c1)c1ccc(C(=O)Nc2ccncc2)cc1 (stereo unspecified)	50 to 500
NC(c1ccc(C(=O)Nc2ccncc2)cc1)C1CCCN1C(=O)Cc1cncc(Br)c1 (stereo unspecified)	500 to 5000
NC(c1ccc(C(=O)Nc2ccncc2)cc1)C1CCCN1C(=O)C1CCCc2sccc21 (stereo unspecified)	50 to 500
COc1ccc(NC(=O)NCC(N)c2ccc(C(=O)Nc3ccncc3)cc2)cc1 (stereo unspecified)	50 to 500
NC(c1ccc(C(=O)Nc2ccncc2)cc1)C1CCCN1C(=O)C1(c2ccc(F)c(F)c2)CCCC1 (stereo unspecified)	500 to 5000
CNS(=O)(=O)c1ccc(C(=O)NCC(N)c2ccc(C(=O)Nc3ccncc3)cc2)cc1 (stereo unspecified)	500 to 5000
CN(CC(N)c1ccc(C(=O)Nc2ccncc2)cc1)C(=O)Cc1ccc(F)c(F)c1 (stereo unspecified)	500 to 5000
NC(CC(=O)NCCc1cccc(Cl)c1)c1ccc(C(=O)Nc2ccncc2)cc1 (stereo unspecified)	50 to 500
COc1ccc(CC(=O)N2CCCC2C(N)c2ccc(C(=O)Nc3ccncc3)cc2)c(OC)c1 (stereo unspecified)	500 to 5000
COc1ccc(CC(=O)N2CCCC2C(N)c2ccc(C(=O)Nc3ccncc3)cc2)cc1F (stereo unspecified)	500 to 5000
NC(CC(=O)N(CCc1ccccc1)Cc1ccccc1)c1ccc(C(=O)Nc2ccncc2)cc1 (stereo unspecified)	50 to 500

Compound	IC50 [nM]
NC(CNC(=O)c1ccc(=O)[nH]n1)c1ccc(C(=O)Nc2ccncc2)cc1 (stereo unspecified)	500 to 5000
CN(CC(N)c1ccc(C(=O)Nc2ccncc2)cc1)C(=O)C1(c2ccc(Cl)c(Cl)c2)CCC1 (stereo unspecified)	500 to 5000
NC(c1ccc(C(=O)Nc2ccncc2)cc1)C1CCCN1C(=O)Cc1ccc2ccccc2c1 (stereo unspecified)	500 to 5000
Cc1ccc(C(=O)NCC(N)c2ccc(C(=O)Nc3ccncc3)cc2)s1 (stereo unspecified)	500 to 5000
CN(CC(N)c1ccc(C(=O)Nc2ccncc2)cc1)C(=O)Cc1ccc(C(F)(F)F)cc1 (stereo unspecified)	500 to 5000
CC(C)=NOC(C)C(=O)NCC(N)c1ccc(C(=O)Nc2ccncc2)cc1 (stereo unspecified)	500 to 5000
CN(C)c1ccc(NC(=O)NCC(N)c2ccc(C(=O)Nc3ccncc3)cc2)cc1 (stereo unspecified)	50 to 500
COc1ccc(CC(=O)N(C)CC(N)c2ccc(C(=O)Nc3ccncc3)cc2)c(OC)c1OC (stereo unspecified)	5000 to 50000
N[C@H](CC(=O)N[C@H]1CCCc2ccccc21)c1ccc(C(=O)Nc2ccncc2)cc1	50 to 500
NC(CC(=O)NCc1cccc([N+](=O)[O-])c1)c1ccc(C(=O)Nc2ccncc2)cc1 (stereo unspecified)	50 to 500
Cc1cc(Cl)ccc1NC(=O)NCC(N)c1ccc(C(=O)Nc2ccncc2)cc1 (stereo unspecified)	50 to 500
NC(CC(=O)NCc1ccccn1)c1ccc(C(=O)Nc2ccncc2)cc1 (stereo unspecified)	50 to 500
CC(C)(Cc1ccc(F)cc1)NC(=O)CC(N)c1ccc(C(=O)Nc2ccncc2)cc1 (stereo unspecified)	50 to 500
NC(CNC(=O)Cc1ccc2c(c1)OCO2)c1ccc(C(=O)Nc2ccncc2)cc1 (stereo unspecified)	50 to 500
NC(c1ccc(C(=O)Nc2ccncc2)cc1)C1CCCN1C(=O)C1CCOc2ccc(F)cc21 (stereo unspecified)	500 to 5000
CN(CC(N)c1ccc(C(=O)Nc2ccncc2)cc1)C(=O)C(C)(C)c1ccc(F)c(F)c1 (stereo unspecified)	500 to 5000
CN(CC(N)c1ccc(C(=O)Nc2ccncc2)cc1)C(=O)C1(c2ccc(F)cc2)CCCC1 (stereo unspecified)	500 to 5000
NC(c1ccc(C(=O)Nc2ccncc2)cc1)C1CCCN1C(=O)Cc1ccc(-c2ccccc2)cc1 (stereo unspecified)	500 to 5000
Cc1ccccc1NC(=S)NCC(N)c1ccc(C(=O)Nc2ccncc2)cc1 (stereo unspecified)	500 to 5000
NC(c1ccc(C(=O)Nc2ccncc2)cc1)C1CCCN1C(=O)Cc1cccc(Cl)c1F (stereo unspecified)	500 to 5000
NC(c1ccc(C(=O)Nc2ccncc2)cc1)C1CCCN1C(=O)Cc1cccs1 (stereo unspecified)	50 to 500
CN(CC(N)c1ccc(C(=O)Nc2ccncc2)cc1)C(=O)C1CC(=O)c2ccccc21 (stereo unspecified)	500 to 5000
NC(CNC(=O)C1CCc2ccccc2C1)c1ccc(C(=O)Nc2ccncc2)cc1 (stereo unspecified)	500 to 5000
N[C@H](CNC(=O)C1(c2ccc(Cl)cc2)CC1)c1ccc(C(=O)Nc2ccncc2)cc1	50 to 500
N#CCC(=O)NCC(N)c1ccc(C(=O)Nc2ccncc2)cc1 (stereo unspecified)	50 to 500
CC(C)(C(=O)NCC(N)c1ccc(C(=O)Nc2ccncc2)cc1)c1ccc(F)cc1F (stereo unspecified)	50 to 500

Compound	IC50 [nM]
NC(CNC(=O)Cc1csc(Nc2ccccc2)n1)c1ccc(C(=O)Nc2ccncc2)cc1 (stereo unspecified)	500 to 5000
NC(CC(=O)N[C@@H]1CCCc2ccccc21)c1ccc(C(=O)Nc2ccncc2)cc1 (stereo partly specified)	50 to 500
NC(CNC(=O)Nc1ccc2ccccc2c1)c1ccc(C(=O)Nc2ccncc2)cc1 (stereo unspecified)	50 to 500
Cc1ccccc1NC(=O)NCC(N)c1ccc(C(=O)Nc2ccncc2)cc1 (stereo unspecified)	50 to 500
Cc1ccc(C(=O)NCC(N)c2ccc(C(=O)Nc3ccncc3)cc2)cc1 (stereo unspecified)	500 to 5000
NC(CNC(=O)NCc1ccccc1)c1ccc(C(=O)Nc2ccncc2)cc1 (stereo unspecified)	50 to 500
NC(CNC(=O)c1ccccc1-c1ccccc1)c1ccc(C(=O)Nc2ccncc2)cc1 (stereo unspecified)	500 to 5000
NC(CNC(=O)C1CCCCC1)c1ccc(C(=O)Nc2ccncc2)cc1 (stereo unspecified)	500 to 5000
Cc1ccccc1C(=O)NCC(N)c1ccc(C(=O)Nc2ccncc2)cc1 (stereo unspecified)	500 to 5000
CC1CCC(NC(=O)CC(N)c2ccc(C(=O)Nc3ccncc3)cc2)CC1 (stereo unspecified)	50 to 500
NC(c1ccc(C(=O)Nc2ccncc2)cc1)C1CCCN1C(=O)C1CCSc2ccc(F)cc21 (stereo unspecified)	500 to 5000
NC(CC(=O)NCc1cc(Cl)ccc1Cl)c1ccc(C(=O)Nc2ccncc2)cc1 (stereo unspecified)	50 to 500
CCN(Cc1ccc([N+](=O)[O-])cc1)C(=O)CC(N)c1ccc(C(=O)Nc2ccncc2)cc1 (stereo unspecified)	50 to 500
NC(CC(=O)NCc1ccccc1F)c1ccc(C(=O)Nc2ccncc2)cc1 (stereo unspecified)	50 to 500
NC(c1ccc(C(=O)Nc2ccncc2)cc1)C1CCCN1C(=O)C1Cc2ccccc21 (stereo unspecified)	50 to 500
CN(CC(N)c1ccc(C(=O)Nc2ccncc2)cc1)C(=O)Cc1ccc(-c2ccccc2)cc1 (stereo unspecified)	500 to 5000
NC(c1ccc(C(=O)Nc2ccncc2)cc1)C1CCCN1C(=O)Cc1cc(F)ccc1F (stereo unspecified)	500 to 5000
NC(CNC(=O)CCc1ccc(F)cc1)c1ccc(C(=O)Nc2ccncc2)cc1 (stereo unspecified)	50 to 500
CC(C)(C(=O)NCC(N)c1ccc(C(=O)Nc2ccncc2)cc1)c1ccsc1 (stereo unspecified)	50 to 500
NC(c1ccc(C(=O)Nc2ccncc2)cc1)C1CCCN1C(=O)Cc1ccc(Br)cc1 (stereo unspecified)	50 to 500
NC(c1ccc(C(=O)Nc2ccncc2)cc1)C1CCCN1C(=O)C1(c2ccsc2)CC1 (stereo unspecified)	500 to 5000
CN(CC(N)c1ccc(C(=O)Nc2ccncc2)cc1)C(=O)Cc1ccc2ccccc2c1 (stereo unspecified)	50 to 500
NC(CNC(=O)CC1CCCCC1)c1ccc(C(=O)Nc2ccncc2)cc1 (stereo unspecified)	500 to 5000
COc1ccc(CNC(=O)CC(N)c2ccc(C(=O)Nc3ccncc3)cc2)cc1 (stereo unspecified)	50 to 500
NC(CC(=O)NCc1ccc(Br)cc1F)c1ccc(C(=O)Nc2ccncc2)cc1 (stereo unspecified)	50 to 500
NC(c1ccc(C(=O)Nc2ccncc2)cc1)C1CCCN1C(=O)C1(c2cccs2)CC1 (stereo unspecified)	500 to 5000

Compound	IC50 [nM]
CN(CC(N)c1ccc(C(=O)Nc2ccncc2)cc1)C(=O)Cc1cccc(Cl)c1F (stereo unspecified)	500 to 5000
NC(CNC(=O)c1nccc2ccccc12)c1ccc(C(=O)Nc2ccncc2)cc1 (stereo unspecified)	500 to 5000
Cc1ccsc1C=NOCC(=O)NCC(N)c1ccc(C(=O)Nc2ccncc2)cc1 (stereo unspecified)	500 to 5000
NC(CNC(=O)Cc1ccc(F)cc1)c1ccc(C(=O)Nc2ccncc2)cc1 (stereo unspecified)	50 to 500
N[C@H](CC(=O)N[C@H]1COc2ccccc21)c1ccc(C(=O)Nc2ccncc2)cc1	50 to 500
NC(CNC(=O)c1ccc2[nH]ccc2c1)c1ccc(C(=O)Nc2ccncc2)cc1 (stereo unspecified)	50 to 500
Cc1ccc(CC(=O)NCC(N)c2ccc(C(=O)Nc3ccncc3)cc2)cc1 (stereo unspecified)	50 to 500
NC(CNC(=S)Nc1cccc2ccccc12)c1ccc(C(=O)Nc2ccncc2)cc1 (stereo unspecified)	50 to 500
Cc1cc(Cl)ccc1OC(C)C(=O)NCC(N)c1ccc(C(=O)Nc2ccncc2)cc1 (stereo unspecified)	50 to 500
CN(CC(N)c1ccc(C(=O)Nc2ccncc2)cc1)C(=O)C(c1ccccc1)C1CCCC1 (stereo unspecified)	5000 to 50000
NC(CNC(=O)NC1CCCC1)c1ccc(C(=O)Nc2ccncc2)cc1 (stereo unspecified)	500 to 5000
NC(CC(=O)NCCc1ccccc1Cl)c1ccc(C(=O)Nc2ccncc2)cc1 (stereo unspecified)	50 to 500
NC(CNC(=O)Nc1ccc(Cl)cc1)c1ccc(C(=O)Nc2ccncc2)cc1 (stereo unspecified)	50 to 500
NC(CC(=O)NC1c2ccccc2-c2ccccc21)c1ccc(C(=O)Nc2ccncc2)cc1 (stereo unspecified)	50 to 500
NC(CNC(=O)C1(c2ccc(F)cc2F)CC1)c1ccc(C(=O)Nc2ccncc2)cc1 (stereo unspecified)	50 to 500
CC(=NOC(C)(C)C)c1ccc(C(=O)NCC(N)c2ccc(C(=O)Nc3ccncc3)cc2)s1 (stereo unspecified)	500 to 5000
CN(CC(N)c1ccc(C(=O)Nc2ccncc2)cc1)C(=O)C(C)(C)c1ccc(F)c(Cl)c1 (stereo unspecified)	500 to 5000
NC(c1ccc(C(=O)Nc2ccncc2)cc1)C1CCCN1C(=O)C1CCc2ccccc21 (stereo unspecified)	500 to 5000
COc1ccc(CC(=O)NCC(N)c2ccc(C(=O)Nc3ccncc3)cc2)cc1 (stereo unspecified)	50 to 500
NC(CC(=O)Nc1cc(-c2ccco2)[nH]n1)c1ccc(C(=O)Nc2ccncc2)cc1 (stereo unspecified)	50 to 500
COc1ccc(OC)c(CNC(=O)CC(N)c2ccc(C(=O)Nc3ccncc3)cc2)c1 (stereo unspecified)	50 to 500
N[C@@H](CC(=O)N[C@H]1CCCc2ccccc21)c1ccc(C(=O)Nc2ccncc2)cc1	50 to 500
NC(c1ccc(C(=O)Nc2ccncc2)cc1)C1CCCN1C(=O)C1CC(=O)c2ccccc21 (stereo unspecified)	500 to 5000
